Test system: Cecum Ligation-Puncture (CLP) induced sepsis
Experiment: Cecum Ligation-Puncture (CLP) induced sepsis in rats, daily calcitriol dosing, survival and body weight
Format: in vivo, adult Wistar rats
Conditions: CLP septic rats
Procedure: Then, the optimal dosing of calcitriol as an example of an agent for treatment of sepsis according to the present invention was determined. Anesthesia was induced in adult Wistar rats with 5% isoflurane followed by maintenance on 2.5% isoflurane. The cecum was exteriorized via a small abdominal incision, and was then ligated approximately 3.5 […] distal to the cecum tip. The ligated cecum was punctured twice with a 26-gauge needle and was gently squeezed to extrude some stool. The cecum was replaced in the abdomen and the incision closed with 4-0 silk sutures in two layers, abdominal wall and skin. This Cecum Ligation-Puncture (CLP) procedure induced sepsis in the animals. Sham-operated rats were treated identically, except that the cecum was neither ligated nor punctured.
The rats then received either standard therapy (normal saline (30 ml/kg body weight) given once immediately after the CLP procedure to compensate the third-space fluid loss and imipenem (25 mg/kg body weight) daily subcutaneously) or therapy according to the present invention (calcitriol at 25 ng, 100 ng or 400 ng in peanut oil subcutaneously daily). The rats were monitored daily for body weight and survival.
Referring now to FIG. 9 and FIG. 10, there are shown, respectively, a graph of percent survival as a function of time after induction of sepsis in rats showing the effect of various doses of calcitriol (none, triangles; 25 ng daily, line; 100 ng daily, circles; and 400 ng daily, squares) (FIG. 9); and a graph of body weight in grams as a function of time after induction of sepsis in rats showing the effect of various doses of calcitriol (none, triangles; 25 ng daily, line; 100 ng daily, circles; and 400 ng daily, squares) (FIG. 10).

## C=C1C(=CC=C2CCC[C@]3(C)[C@@H]2CC[C@@H]3[C@H](C)CCCC(C)(C)O)C[C@@H](O)C[C@@H]1O [calcitriol, (1R,3S)-5-[2-[(1R,3aR,7aS)-1-[(2R)-6-hydroxy-6-methyl-heptan-2-yl]-7a-methyl-2,3,3a,5,6,7-hexahydro-1H-inden-4-ylidene]ethylidene]-4-methylidene-cyclohexane-1,3-diol]
400 ng daily subcutaneously
  signs of hypercalcemia: typical signs of hypercalcemia
400 ng daily subcutaneously, FIG. 9
  effect on survival: negatively affected
400 ng daily subcutaneously, FIG. 10
  effect on body weight: negatively affected
Calcitriol 25, 100 or 400 ng in peanut oil subcutaneously daily, FIG. 9
  optimal dose for survival: 100 ng daily
Calcitriol 25, 100 or 400 ng in peanut oil subcutaneously daily, FIG. 10
  optimal dose for body weight: 100 ng daily
